Results from patent US20250263667A1, “HUMAN FATTY-LIVER MODEL CELLS FOR USE IN SCREENING METHOD” (PhoenixBio Co., Ltd., priority 2021, published 2025).

Key:
Format in all cases: cell-based, human
PXB-cells [1] = assay: Analysis of lipoprotein in culture supernatant (LipoSEARCH gel filtration HPLC) of PXB-cells; details: for content of Large-VLDL among the VLDL in the culture supernatant (neutral fat (triglyceride)): Large-VLDL alone changed
Method: The following day of seeding, medium A was removed. Instead, 500 μL of medium B (DMSO (+)) or medium C (DMSO (−)) was added. The plate was gently placed in an incubator (37° C., 5% CO2) and the cells were cultured for 5 days. After completion of culture, an image of the cells was taken by a photomicrographic camera. Then, the culture supernatant was recovered and subjected to analysis for lipoprotein in the culture supernatant described below. Lipoproteins contained in the culture supernatants of PXB-cells, HepG2 cells and HuH7 cells were analyzed by using LipoSEARCH (registered trademark) method (Skylight Biotech, Inc.). After completion of the culture mentioned above, the medium used in the culture was removed and 500 μL of medium D for analysis was added. The culture plate was gently placed in an incubator (37° C., 5% CO2) and the cells were cultured for 2 days. Thereafter, the culture supernatant was recovered, lipoproteins contained in the culture supernatant (80 μL) were fractionated into 4 types of subgroups, CM, VLDL, LDL and HDL fractions, by gel filtration HPLC. Cholesterol and neutral fat (triglyceride) contained in individual fractions were quantified by online enzyme reactions. Concentration analysis was carried out in accordance with the computer program specifically developed by Skylight Biotech, Inc. Note that, in the enzymatic reaction, Diacolor Liquid TG-S (manufactured by Toyobo Co., Ltd.) was used. As standard sera for cholesterol and neutral fat (triglyceride) concentration in CM, VLDL, LDL and HDL, the sera manufactured by Kyowa Hakko Kirin Co., Ltd. were used. PXB-cells were diluted with medium A. The diluted cell suspension (500 μL) was gently poured to individual wells of a culture plate. The plate was allowed to stand still for about 20 minutes until the cells were slightly in contact with the bottom surface of the wells and gently placed to an incubator (37° C., 5% CO2) to culture the cells. The following day of seeding, medium A was removed and 500 μL of medium B (DMSO (+)) was added. The plate was gently placed in an incubator (37° C., 5% CO2) and the cells were cultured for 13 days. After completion of culture, the cells were used in the following test. A medium of PXB-cells prepared above was exchanged with medium D containing 0.75 mM oleic acid, and gently placed in an incubator (37° C., 5% CO2). PXB-cells were cultured for two days. PXB-cells were prepared in the same manner as in the method set forth in “Preparation of cells” in the above step (1-1) except that the period of culture in medium B (DMSO (+)) was set at 6 days and subjected to the following test. The mediums for the PXB-cells prepared above were exchanged with mediums D containing 1 nM or 5 nM lomitapide respectively and gently placed in an incubator (37° C., 5% CO2). PXB-cells were cultured for two days. PXB-cells were prepared in the same manner as in the method set forth in “Preparation of cells” in the above step (1-1) and subjected to the following test. The mediums of the PXB-cells prepared above were exchanged with mediums D containing 10 μM, 50 μM or 100 μM fenofibrate and gently placed in an incubator (37° C., 5% CO2). The PXB-cells were cultured for 2 days. After completion of the culture, cholesterol and neutral fat (triglyceride) in the culture supernatant and cells were measured in accordance with the method described in the above section “Analysis of lipoprotein in culture supernatant” and “Analysis of lipoprotein in cells”, respectively.

PXB-cells [2] = assay: Observation of fat droplets in PXB-cells by photomicrograph; details: 2% DMSO in medium, 5 days culture
Method: The following day of seeding, medium A was removed. Instead, 500 μL of medium B (DMSO (+)) or medium C (DMSO (−)) was added. The plate was gently placed in an incubator (37° C., 5% CO2) and the cells were cultured for 5 days. After completion of culture, an image of the cells was taken by a photomicrographic camera. Then, the culture supernatant was recovered and subjected to analysis for lipoprotein in the culture supernatant described below.

PXB-cells [3] = assay: Analysis of lipoprotein in cells (intracellular triglyceride and cholesterol, Cholestest) of PXB-cells; details: 2 days, data not shown
Method: Triglyceride in cells was measured by use of Cholestest (registered trademark) TG (Sekisui Medical Co., Ltd.) in accordance with the instruction by the manufacturer. More specifically, the cells were washed with PBS, and then, completely dewatered (stored at -80° C. until measurement). To each well containing the cells, 200 μL of TG enzyme solution (1) was added. A reaction was allowed to proceed while keeping the cells warm at 37° C. for 10 minutes (free glycerol was removed) Then, the cells were torn away by pipetting, transferred to a centrifuge tube and centrifuged at 10,000 rpm×10 minutes. Then, the supernatant (7.5 μL) was transferred to a 96-well microplate. To this, 68 μL of TG enzyme solution (1) was added and the microplate was kept warm at 37° C. for 10 minutes to remove completely free glycerol. Then, 25 μL of TG enzyme solution (2) was added and kept the plate warm at 37° C. for 10 minutes. The resultant reaction product was subjected to measurement of absorbance at 550 nm. The content of triglyceride was calculated based on HDL-[…] as the reference (triglyceride concentration of HDL-[…] was 52.26 mg/dL). Intracellular cholesterol was measured by use of Cholestest (registered trademark) CHO (Sekisui Medical Co., Ltd.) in accordance with the instruction by the manufacturer. […] The resultant reaction product was subjected to measurement of absorbance at 550 nm. The content of cholesterol was calculated based on HDL-[…] as the standard ([…] of HDL-[…] was 152.67 mg/dL). […] After completion of culture, the total cholesterol and total neutral fat (triglyceride) in culture supernatant and in cells were measured in accordance with the methods described in the sections “Analysis of lipoprotein in culture supernatant” and “Analysis of lipoprotein in cells”. […] After completion of the culture, cholesterol and neutral fat (triglyceride) in the culture supernatant and cells were measured in accordance with the method described in the above sections “analysis of lipoprotein in culture supernatant” and “analysis of lipoprotein in cells”, respectively. […]

## C[S+](C)[O-] [DMSO, dimethyl sulfoxide]
PXB-cells [1]; 2% DMSO in medium, 5 days culture, culture supernatant
  secretion of total neutral fat (triglyceride) in lipoproteins, medium B (DMSO (+)) relative to medium C (DMSO (−)): about 9 times
PXB-cells [2]
  number of fat droplets in PXB-cells, medium B (DMSO (+)) compared to medium C (DMSO (−)): about double

## CCCCCCCC/C=C\CCCCCCCC(=O)O [oleic acid]
PXB-cells [1]; 0.75 mM oleic acid in medium D, 2 days
  content of Large-VLDL among the VLDL in the culture supernatant (neutral fat (triglyceride)): significantly increased
PXB-cells [1]; 0.75 mM oleic acid in medium D, 2 days, PXB-cells pre-cultured 13 days in medium B (DMSO (+)), vs medium D control
  VLDL content in the culture supernatant (neutral fat (triglyceride)): significantly increased
PXB-cells [1]; 0.75 mM oleic acid, 2 days, data not shown
  content of cholesterol in the culture supernatant: change similarly to the content of neutral fat (triglyceride)
PXB-cells [3]; 0.75 mM oleic acid
  content of cholesterol in the cells: change similarly to the content of neutral fat (triglyceride)
  content of neutral fat (triglyceride) in the cells: significantly increased

## O=C(NC1CCN(CCCCC2(C(=O)NCC(F)(F)F)c3ccccc3-c3ccccc32)CC1)c1ccccc1-c1ccc(C(F)(F)F)cc1 [lomitapide]
PXB-cells [1]; 5 nM lomitapide in medium D, 2 days, PXB-cells pre-cultured 6 days in medium B (DMSO (+)), vs ethanol control
  VLDL content of the culture supernatant (neutral fat (triglyceride)): significantly decreases
PXB-cells [1]; lomitapide in medium D, 2 days
  content of Large-VLDL among the VLDL in the culture supernatant (neutral fat (triglyceride)): significantly decreased
PXB-cells [3]; lomitapide (1 nM or 5 nM)
  content of neutral fat (triglyceride) in the cells: no change
